Where “and” joins values, the source holds several entries; their conditions need not be identical. Equal entries are not always repeated.
Biological target: T1, progerin (Mus musculus, UniProt P48678, DEL608-657)
T1 construct: Lamin A/C and progerin amounts in tissue samples including lung, liver, and kidney; from tissue; host or cells: lung, liver and kidney of Lmna G609G/+ mice
T1 sequence (P48678 with tags, fused parts or gaps DEL608-657): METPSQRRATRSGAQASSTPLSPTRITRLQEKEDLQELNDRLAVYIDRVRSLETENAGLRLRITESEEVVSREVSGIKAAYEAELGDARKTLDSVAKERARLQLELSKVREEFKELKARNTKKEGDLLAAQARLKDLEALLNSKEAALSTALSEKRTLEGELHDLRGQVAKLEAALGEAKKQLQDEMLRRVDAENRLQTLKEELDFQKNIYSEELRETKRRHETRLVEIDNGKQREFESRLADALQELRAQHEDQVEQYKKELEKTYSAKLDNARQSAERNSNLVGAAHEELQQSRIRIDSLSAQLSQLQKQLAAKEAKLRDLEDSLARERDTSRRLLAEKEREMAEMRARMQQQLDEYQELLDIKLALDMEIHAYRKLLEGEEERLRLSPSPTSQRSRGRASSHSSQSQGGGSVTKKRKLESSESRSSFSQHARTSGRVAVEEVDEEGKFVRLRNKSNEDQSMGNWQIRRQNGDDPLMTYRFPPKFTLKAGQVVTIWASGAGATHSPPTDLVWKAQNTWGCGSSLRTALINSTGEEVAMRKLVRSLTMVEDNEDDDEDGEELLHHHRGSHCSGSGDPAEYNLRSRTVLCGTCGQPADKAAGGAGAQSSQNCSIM
Test: Western blot of progerin and H3K9me3 in tissue samples (lung, liver, kidney)
Assay type: in vivo
Settings: for H3K9me3 intensity / Progerin intensity: D011-treated LmnaG609G/+ mice
Excerpt: Fig. 4 Oral administration of SLC-D011 suppresses premature aging features. A Gross morphology of SLC-D011-treated (D011) mice at 8 weeks old. Body size of treated mouse was apparently larger than that of the untreated control (Con) mouse. B Oral administration of SLC-D011 increases body weights of Lmna^G609G/G609G mice. Compared with untreated control group, body weight of treated mouse was increased by ~35%, *p < 0.05. C Oral administration of SLC-D011 extends the life span of Lmna^G609G/G609G mouse. SLC-D011 in monoolein-based solution was treated by oral gavage (50 mg/kg, daily) from 5 weeks old. […] E Grip test of Lmna^G609G/+ mice at 41-week-old was performed after administration of SLC-D011 for 6 weeks. The test was repeated 10 times for each mouse (n > 4), **p < 0.001. Data are presented as mean ± SD. F Electrocardiographic analysis of Lmna^G609G/+ mice (untreated: n = 4; SLC-D011: n = 4) and Lmna^+/+ mice (n = 3) after treatment with SLC-D011 for 6 weeks (unpaired t test). Heart rate is shown as beats per minute (bpm). G Dental abnormalities in Lmna^G609G/+ mice (untreated: n = 4; SLC-D011: n = 5) and Lmna^+/+ mice (n = 4). […] Lower incisors of Lmna^G609G transgenic mice grow toward the palate because of malocclusion. Oral administration of SLC-D011 for 6 weeks alleviates dental abnormalities. H Anti-aging effects of single treatment of SLC-D011 or lonafarnib were measured in HGPS patients-derived cells (AG11513, AG03199, AG11498, and AG03198, Coriell Cell Repositories). Single treatment of SLC-D011, compared to lonafarnib, reduced the expression of progerin but induced the expression of H3K9me3 and cyclin B1 in HGPS cells more effectively. HGPS patients-derived cells were treated with SLC-D011 (500 nM) or lonafarnib (500 nM) for 3 days. I Scheme of interaction between lamin A and progerin. SLC-D011 interrupts the interaction between lamin A and progerin through direct binding to the C-terminal region of progerin. “Con” and “untreated” mean vehicle (monoolein-based solution)-treated mouse group or vehicle (DMSO)-treated cells. TEXT PRINTED IN THE PICTURE: (C) D011: Kaplan-Meier survival curve in Lmna^G609G/G609G: Ave=25.2; Kaplan-Meier survival curve in Lmna^G609G/G609G: Max=26 DOUBTS OF THE COPYIST ABOUT THIS PICTURE: Panel C: Ave=25.2 / Max=26 are assigned to D011 only because they are printed beside the solid curve. No unit is printed with them; the x axis reads Age (weeks). / Panel C: Ave=16.8 / Max=18 are printed beside the dashed curve of the control (Con). They are left out because Con is not a substance.
Lamin A/C and progerin amounts in tissue samples including lung, liver, and kidney analysis of two Lmna^+/+, four untreated Lmna^G609G/+, and four D011-treated Lmna^G609G/+ mice were evaluated by western blotting. Proteins were extracted with RIPA lysis buffer supplemented with protease inhibitors. Tissues were sonicated and centrifuged at 15,000 rpm for 15 min at 4 °C. Protein concentration was determined by Coomassie-blue staining. Cellular lysates in SDS-containing sample buffer were inactivated by heating at 98 °C for 7 min. Proteins were loaded onto 8% SDS-PAGE gels and transferred to PVDF membranes. These membranes were blocked with 3% skimmed milk in TBS-T buffer for 1 h and incubated with primary antibodies including mouse monoclonal anti-progerin (1:100; sc-81611; Santa Cruz Biotechnology), mouse monoclonal anti-lamin A/C (1:500; MANLAC1; Developmental Studies Hybridoma Bank), and rabbit polyclonal anti-H3K9me3 (1;2000; Ab8898; Abcam) at 4°C overnight. Blots were then incubated with 1:10,000 goat anti-mouse (Pierce, Thermo Fisher Scientific) or 1:10,000 goat anti-rabbit (Pierce, Thermo Fisher Scientific) IgG (HRP conjugated) in 1% skimmed milk and washed with TBS-T buffer. Bands were developed using and Intron ECL detection system and quantified using Image J (National Institute of Health, NIH).
Fig. S10. […]

[1] = Lmna G609G/+ mice, oral 50 mg/kg daily for 8 weeks

## CC1(C)Oc2cc3oc(=O)ccc3cc2C[C@@H]1OC/C=C/c1ccccc1 [SLC-D011]
Kidney, Ave
  H3K9me3 intensity: 6.21 AU and 9.731 AU
  Progerin intensity: 4.42 AU and 7.581 AU
Kidney, individual replicate
  H3K9me3 intensity: 7.144 AU and 5.202 AU and 6.284 AU and 10.9311 AU and 8.4105 AU and 9.851 AU
  Progerin intensity: 5.843 AU and 4.429 AU and 2.988 AU and 9.2 AU and 12.7266 AU and 0.8173 AU
Liver, Ave
  H3K9me3 intensity: 4.595 AU and 7.491 AU
Liver, individual replicate
  H3K9me3 intensity: 4.833 AU and 4.0316 AU and 4.921 AU and 8.228 AU and 7.116 AU and 7.128 AU
  Progerin intensity: 1.2695 AU and 1.954 AU and 0.8023 AU and 0.5773 AU and 0.1521 AU and 0.4975 AU
[1]
  H3K9me3 level in tissues: increase of H3K9me3
  Progerin level in tissues: Obvious reduction of progerin
Lung, Ave
  Progerin intensity: 1.397 AU and 0.9832 AU
Lung, individual replicate
  H3K9me3 intensity: 2.3231 AU and 2.511 AU and 2.358 AU and 5.884 AU and 5.376 AU and 5.841 AU
  Progerin intensity: 2.376 AU and 1.606 AU and 0.2082 AU and 2.142 AU and 0.6098 AU and 0.1984 AU
